Source: the SangsterLogP compilation
Square brackets hold non-standard residues; d marks the D form. Peptide text beside a SMILES is read from it. NMeF = CN[CH](Cc1ccccc1)C(=O)O

Columns and labels:
[1] = method code SF-CR+AS, from DOI: 10.1007/bf00500994, PMID: 4267539; conditions: pH 7.4
[2] = method code SF-GLC, from DOI: 10.1016/0166-445x(88)90052-5
[3] = method code SF-HPLC, from DOI: 10.1002/jlac.1995199512306
[4] = method code SF-HPLC, from DOI: 10.1016/0378-5173(91)90200-8; conditions: pH 7.4
[5] = method code SF, from DOI: 10.1515/znc-1979-1128; conditions: pH 7.4
[6] = method code SF-AS, from DOI: 10.1016/j.ejmech.2011.02.056, PMID: 21420207
[7] = not given; remark: listed apart in the source
[8] = not given; remark: listed apart in the source
[9] = method code SF-GLC, from DOI: 10.1002/jps.2600620103, PMID: 4734195
[10] = method code HPLC, from DOI: 10.1016/j.ejmech.2015.05.022, PMID: 26005028; conditions: pH 7.1
[11] = not given; remark: listed apart in the source
[12] = method code SF-HPLC, from DOI: 10.1021/jm00169a024, PMID: 2194033; conditions: pH 7.4
[13] = method code SF-HPLC, from DOI: 10.1002/jccs.199500138
[14] = method code SF-AS, from DOI: 10.1021/jm0104926, PMID: 11960499
[15] = method code SF-RC, from DOI: 10.1023/a:1015867608405, PMID: 1614980; conditions: pH 7.4
[16] = method code SF-AS, from DOI: 10.1016/0378-5173(80)90061-7
[17] = not given; remark: listed apart in the source
[18] = not given; remark: listed apart in the source
[19] = method code SF-AS, from DOI: 10.1002/jps.2600710122
[20] = method code SF-HPLC, from DOI: 10.1016/0045-6535(86)90532-1; conditions: pH 6.5

**Q.** Which logD [1] does the source give for `O=CC(Cl)(Cl)Cl` here?
**A.** 1.61

**Q.** With `CCCCC1CO1` (stereo unspecified) as the compound, how does the logP [2] read?
**A.** 1.95

**Q.** Which logP [3] does the source give for `Cc1cn(C2CC(N=[N+]=[N-])C(COP(=O)(OCc3ccc(C#N)cc3)OCC3OC(n4cc(C)c(=O)[nH]c4=O)CC3N=[N+]=[N-])O2)c(=O)[nH]c1=O` (stereo unspecified) here?
**A.** 0.91

**Q.** With `CCOC(=O)CC(Cc1cncn1C)C(CC)C(=O)OCc1ccc(COC(=O)C(CC)C(CC(=O)OCC)Cc2cncn2C)cc1` (stereo unspecified) as the compound, how does the logD [4] read?
**A.** 4.08

**Q.** With `CO[C@@H]1[C@@H](O[C@@H]2O[C@H](C)[C@@H](O)[C@H](N(C)C)[C@H]2O)[C@@H](CC=O)C[C@@H](C)C(=O)/C=C\[C@H]2O[C@H]2C[C@@H](C)OC(=O)C[C@H]1OC(C)=O` as the compound, how does the logP read?
**A.** 0.3

**Q.** Which logD [5] does the source give for `c1ncncn1` here?
**A.** -0.73

**Q.** Which logP [6] does the source give for `CCCCCCCCCCCC(=O)N[C@H]1C[C@H](O[C@H]2C[C@](O)(C(=O)CO)Cc3c(O)c4c(c(O)c32)C(=O)c2c(OC)cccc2C4=O)O[C@@H](C)[C@H]1O` here?
**A.** 1.96

**Q.** Which logP [7] does the source give for `CC(C)CCC[C@@H](C)[C@H]1CC[C@H]2C3=CC=C4C[C@@H](O)CC[C@]4(C)[C@H]3CC[C@]12C` here?
**A.** 8.65

**Q.** Which logP [8] does the source give for `NC(=O)c1cssc1=S` here?
**A.** 0.3

**Q.** For `CC(O)C(F)(F)F` (stereo unspecified), which logP [9] is on record?
**A.** 0.71

**Q.** Which logP [8] does the source give for `Cc1c(-c2cnccn2)ssc1=S` here?
**A.** 2.79

**Q.** With `COC(=O)CBr` as the compound, how does the logD [10] read?
**A.** 0.77

**Q.** With `ClC(Br)Br` as the compound, how does the logP [11] read?
**A.** 2.24

**Q.** Which logD [12] does the source give for `CCN1CC(C(O)[C@H](CC2CCCCC2)NC(=O)[C@H](Cc2cnc[nH]2)NC(=O)[C@@H](Cc2ccc(OC)cc2)NC(=O)N2CCOCC2)OC1=O` (stereo partly specified) here?
**A.** 2.11

**Q.** With `CC(=CCCC(C)C1CC(O)C2(C)C3=CCC4C(C)(CCC(O)C4(C)C)C3=CCC12C)C(=O)O` (stereo unspecified) as the compound, how does the logP [13] read?
**A.** 2.69

**Q.** For `FC(Cl)C(F)(F)C1(Br)N=N1` (stereo unspecified), which logP [14] is on record?
**A.** 2.18

**Q.** Which logD [15] does the source give for `CC(=O)NC(Cc1ccccc1)C(=O)NC(Cc1ccccc1)C(=O)N(C)C(Cc1ccccc1)C(N)=O` (stereo not drawn) (Ac-Phe-Phe-[NMeF]-NH2; configuration not given here) here?
**A.** 2.63

**Q.** With `O=C1CCCO1` as the compound, how does the logP [16] read?
**A.** -0.31

**Q.** For `Fc1ccccc1`, which logP [17] is on record?
**A.** 2.01

**Q.** For `CCN1CC(C(O)[C@H](CC2CCCCC2)NC(=O)[C@H](Cc2cnc[nH]2)NC(=O)[C@@H](CC(=O)N(C)CCOCOC)Cc2ccccc2)OC1=O` (stereo partly specified), which logD [12] is on record?
**A.** 2.49

**Q.** With `CCCCCCCCc1ccc(OCC(=O)Cn2cc(C(=O)OC)c3cc(C(=O)O)ccc32)cc1` as the compound, how does the logP [18] read?
**A.** 6.2

**Q.** For `CC(=O)Nc1n[nH]c(NC(C)=O)n1`, which logP [19] is on record?
**A.** -1.01

**Q.** For `OCC(Cl)Cl`, which logP [9] is on record?
**A.** 0.37

**Q.** Which logD [4] does the source give for `CCC(C(=O)OCc1ccc(COC(=O)C(CC)C(COC(C)=O)Cc2cncn2C)cc1)C(COC(C)=O)Cc1cncn1C` (stereo unspecified) here?
**A.** 3.04

**Q.** For `C1OC1C1CO1` (stereo unspecified), which logP [2] is on record?
**A.** -0.28

**Q.** For `CC1=C(C/C=C(\C)CCC[C@H](C)CCC[C@H](C)CCCC(C)C)C(=O)c2ccccc2C1=O`, which logP [7] is on record?
**A.** 11.7

**Q.** For `CCCCNC(=S)NCCCC`, which logD [20] is on record?
**A.** 2.75

**Q.** For `Nc1nc(NC(=O)C(F)(F)C(F)(F)C(F)(F)F)n[nH]1`, which logP [19] is on record?
**A.** 1.54

**Q.** Which logP [16] does the source give for `COC(=O)CCCO` here?
**A.** -0.06

**Q.** For `CCC(C(=O)OCc1ccc(COC(=O)C(CC)C(COC(=O)CC(=O)OC)Cc2cncn2C)cc1)C(COC(=O)CC(=O)OC)Cc1cncn1C` (stereo unspecified), which logD [4] is on record?
**A.** 2.76

**Q.** With `CC(=O)N(C)C(Cc1ccccc1)C(=O)N(C)C(Cc1ccccc1)C(=O)N(C)C(Cc1ccccc1)C(N)=O` (stereo unspecified) (Ac-[NMeF]-[NMeF]-[NMeF]-NH2; configuration not given here) as the compound, how does the logD [15] read?
**A.** 2.92
